Measurements: ChEMBL document CHEMBL1135352, “8-Anilinoimidazo[4,5-g]quinoline-7-carbonitriles as Src kinase inhibitors” (Bioorg Med Chem Lett, 2002)
pIC50: −log10 of the molar value.

Tests used:
[1] = target: Receptor tyrosine-protein kinase erbB-2 (Homo sapiens, UniProt P04626); test: Inhibition of ERBB2 receptor kinase
[2] = target: Proto-oncogene tyrosine-protein kinase Src (Rattus norvegicus, UniProt Q9WUD9); test: Inhibition of src kinase activity in Src transformed rat fibroblasts; format: functional
[3] = target: Proto-oncogene tyrosine-protein kinase Src (Homo sapiens, UniProt P12931); test: Inhibition of Src protein tyrosine kinase activity
[4] = Inhibition of Dual specificity mitogen-activated protein kinase kinase MEK
[5] = target: Epidermal growth factor receptor (Homo sapiens, UniProt P00533); test: Inhibition of Epidermal growth factor receptor kinase
Chain of Epidermal growth factor receptor (P00533 whole entry): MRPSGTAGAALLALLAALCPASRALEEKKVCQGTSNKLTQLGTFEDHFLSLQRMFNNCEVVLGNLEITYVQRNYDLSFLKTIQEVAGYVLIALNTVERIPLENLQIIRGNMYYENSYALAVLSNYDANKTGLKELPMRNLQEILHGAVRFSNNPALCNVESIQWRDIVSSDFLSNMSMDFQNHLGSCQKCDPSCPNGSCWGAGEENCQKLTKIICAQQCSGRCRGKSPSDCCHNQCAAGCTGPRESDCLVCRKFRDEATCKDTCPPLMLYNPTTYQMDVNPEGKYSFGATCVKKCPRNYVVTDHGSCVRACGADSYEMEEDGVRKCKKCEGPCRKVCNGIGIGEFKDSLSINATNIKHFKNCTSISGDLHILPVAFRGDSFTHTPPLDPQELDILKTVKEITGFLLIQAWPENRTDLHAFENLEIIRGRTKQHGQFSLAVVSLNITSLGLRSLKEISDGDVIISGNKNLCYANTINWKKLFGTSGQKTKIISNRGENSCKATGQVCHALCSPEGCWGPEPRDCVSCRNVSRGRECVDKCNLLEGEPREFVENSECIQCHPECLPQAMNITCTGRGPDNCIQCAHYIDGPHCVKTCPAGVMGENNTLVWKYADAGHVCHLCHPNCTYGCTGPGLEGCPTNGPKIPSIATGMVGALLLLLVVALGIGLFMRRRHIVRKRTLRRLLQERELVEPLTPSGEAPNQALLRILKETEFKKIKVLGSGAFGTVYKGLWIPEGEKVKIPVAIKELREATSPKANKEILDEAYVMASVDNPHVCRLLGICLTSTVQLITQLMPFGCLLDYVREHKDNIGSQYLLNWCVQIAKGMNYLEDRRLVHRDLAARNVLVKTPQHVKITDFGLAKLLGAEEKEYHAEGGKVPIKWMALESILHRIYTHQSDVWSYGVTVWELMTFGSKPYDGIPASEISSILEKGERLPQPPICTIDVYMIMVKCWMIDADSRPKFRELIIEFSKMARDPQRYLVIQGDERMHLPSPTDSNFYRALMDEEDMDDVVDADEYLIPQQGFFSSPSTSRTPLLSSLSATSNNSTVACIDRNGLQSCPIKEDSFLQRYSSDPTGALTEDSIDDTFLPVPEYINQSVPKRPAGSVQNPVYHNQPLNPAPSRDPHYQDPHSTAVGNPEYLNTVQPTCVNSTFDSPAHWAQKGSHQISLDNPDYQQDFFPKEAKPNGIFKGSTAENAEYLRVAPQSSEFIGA

Chain of Receptor tyrosine-protein kinase erbB-2 (P04626 whole entry): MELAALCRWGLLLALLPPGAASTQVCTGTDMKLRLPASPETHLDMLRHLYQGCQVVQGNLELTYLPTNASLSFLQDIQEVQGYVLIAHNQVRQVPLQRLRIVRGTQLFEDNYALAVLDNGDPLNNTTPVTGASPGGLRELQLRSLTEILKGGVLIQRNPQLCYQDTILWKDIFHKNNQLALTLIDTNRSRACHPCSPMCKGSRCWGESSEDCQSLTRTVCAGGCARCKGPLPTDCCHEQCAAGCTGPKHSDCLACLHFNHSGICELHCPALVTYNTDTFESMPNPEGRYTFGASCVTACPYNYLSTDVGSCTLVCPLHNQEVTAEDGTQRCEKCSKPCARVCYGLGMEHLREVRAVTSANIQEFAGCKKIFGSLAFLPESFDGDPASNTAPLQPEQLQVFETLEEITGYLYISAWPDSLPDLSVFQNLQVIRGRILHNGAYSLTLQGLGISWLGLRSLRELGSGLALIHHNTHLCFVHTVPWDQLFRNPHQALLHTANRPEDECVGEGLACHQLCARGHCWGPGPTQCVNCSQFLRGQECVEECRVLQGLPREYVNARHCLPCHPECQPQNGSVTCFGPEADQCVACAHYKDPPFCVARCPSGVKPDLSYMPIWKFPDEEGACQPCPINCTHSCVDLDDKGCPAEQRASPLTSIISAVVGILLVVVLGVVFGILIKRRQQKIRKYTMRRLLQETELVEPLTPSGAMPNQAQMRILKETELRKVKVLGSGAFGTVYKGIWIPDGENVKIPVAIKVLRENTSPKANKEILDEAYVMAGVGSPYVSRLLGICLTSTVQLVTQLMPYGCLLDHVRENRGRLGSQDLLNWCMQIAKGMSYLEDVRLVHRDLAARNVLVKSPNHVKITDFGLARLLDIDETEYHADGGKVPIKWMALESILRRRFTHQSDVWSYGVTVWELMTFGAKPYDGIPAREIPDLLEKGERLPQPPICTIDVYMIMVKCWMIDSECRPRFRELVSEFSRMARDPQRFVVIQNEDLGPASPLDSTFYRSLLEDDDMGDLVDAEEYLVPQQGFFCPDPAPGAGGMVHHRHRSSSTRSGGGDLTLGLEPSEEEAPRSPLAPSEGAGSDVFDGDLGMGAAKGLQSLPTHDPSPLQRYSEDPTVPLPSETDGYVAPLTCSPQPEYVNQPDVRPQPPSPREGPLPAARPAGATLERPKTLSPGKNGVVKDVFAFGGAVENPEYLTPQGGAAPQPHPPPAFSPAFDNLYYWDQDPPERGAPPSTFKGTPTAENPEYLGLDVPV
Chain of Proto-oncogene tyrosine-protein kinase Src (Homo sapiens, UniProt P12931) (P12931 2-536 limits assumed): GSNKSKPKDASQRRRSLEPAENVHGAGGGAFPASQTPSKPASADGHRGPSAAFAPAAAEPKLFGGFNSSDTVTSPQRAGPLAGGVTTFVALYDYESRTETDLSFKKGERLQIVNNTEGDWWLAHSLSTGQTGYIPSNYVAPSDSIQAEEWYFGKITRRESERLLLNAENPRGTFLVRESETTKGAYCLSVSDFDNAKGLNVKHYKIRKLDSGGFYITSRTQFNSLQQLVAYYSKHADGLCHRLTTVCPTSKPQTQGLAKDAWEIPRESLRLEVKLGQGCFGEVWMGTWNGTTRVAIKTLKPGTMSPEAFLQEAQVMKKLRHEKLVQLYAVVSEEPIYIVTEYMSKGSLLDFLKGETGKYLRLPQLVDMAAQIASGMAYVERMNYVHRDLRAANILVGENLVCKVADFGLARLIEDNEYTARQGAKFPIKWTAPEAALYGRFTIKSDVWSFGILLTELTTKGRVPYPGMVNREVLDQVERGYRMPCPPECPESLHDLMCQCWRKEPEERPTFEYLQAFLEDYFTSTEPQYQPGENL
Chain of Proto-oncogene tyrosine-protein kinase Src (Rattus norvegicus, UniProt Q9WUD9) (Q9WUD9 2-536 limits assumed): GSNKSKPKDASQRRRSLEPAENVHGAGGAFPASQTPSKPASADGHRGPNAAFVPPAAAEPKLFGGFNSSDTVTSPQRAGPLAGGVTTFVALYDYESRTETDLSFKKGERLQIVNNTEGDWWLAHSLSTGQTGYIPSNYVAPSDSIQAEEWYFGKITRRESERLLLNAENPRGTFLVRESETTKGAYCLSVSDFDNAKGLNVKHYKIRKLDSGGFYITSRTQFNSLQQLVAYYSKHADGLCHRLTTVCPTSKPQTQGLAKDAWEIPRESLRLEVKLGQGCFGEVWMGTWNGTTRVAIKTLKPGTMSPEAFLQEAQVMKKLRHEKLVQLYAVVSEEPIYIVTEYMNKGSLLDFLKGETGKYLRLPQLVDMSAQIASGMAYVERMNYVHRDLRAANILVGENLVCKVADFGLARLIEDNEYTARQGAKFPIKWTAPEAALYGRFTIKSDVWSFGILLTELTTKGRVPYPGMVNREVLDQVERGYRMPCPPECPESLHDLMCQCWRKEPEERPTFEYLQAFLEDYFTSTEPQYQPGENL

pIC50 [1]	pIC50 [2]	pIC50 [3]	pIC50 [4]	pIC50 [5]	SMILES
< 6.00	< 5.00	6.74	–	–	COc1cc(Nc2c(C#N)cnc3cc4nc(NCCN5CCOCC5)[nH]c4cc23)cc(OC)c1OC
< 6.00	< 5.00	6.21	< 6.00	< 6.00	COc1cc(Nc2c(C#N)cnc3cc4[nH]c(CN5CCOCC5)nc4cc23)cc(OC)c1OC
< 6.00	4.98	7.52	< 6.00	< 6.00	COc1ccc(Cl)c(Nc2c(C#N)cnc3cc4[nH]cnc4cc23)c1
< 6.00	5.41	7.54	< 6.00	< 6.00	COc1cc(Nc2c(C#N)cnc3cc4c(cc23)ncn4CCN2CCOCC2)c(C)cc1Cl
< 6.00	5.48	6.92	< 6.00	< 6.00	COc1ccc(C)c(Nc2c(C#N)cnc3cc4c(cc23)ncn4CCN2CCOCC2)c1
< 6.00	5.92	7.37	< 6.00	< 6.00	COc1ccc(Cl)c(Nc2c(C#N)cnc3cc4c(cc23)ncn4CCN2CCOCC2)c1
< 6.00	< 5.00	6.70	< 6.00	< 6.00	COc1cc(Nc2c(C#N)cnc3cc4c(cc23)ncn4CCN2CCOCC2)cc(OC)c1OC
< 6.00	5.00	7.12	< 6.00	< 6.00	N#Cc1cnc2cc3[nH]cnc3cc2c1Nc1ccc(Cl)cc1Br
< 6.00	< 5.00	6.48	< 6.00	< 6.00	COc1cc(Nc2c(C#N)cnc3cc4[nH]cnc4cc23)cc(OC)c1OC
< 6.00	< 5.00	7.17	< 6.00	< 6.00	COc1ccc(C)c(Nc2c(C#N)cnc3cc4[nH]c(NCCN5CCOCC5)nc4cc23)c1
< 6.00	6.17	8.05	< 6.00	< 6.00	COc1cc(Nc2c(C#N)cnc3cc4c(cc23)ncn4CCN2CCOCC2)c(Br)cc1Cl
< 6.00	5.55	7.80	< 6.00	< 6.00	COc1cc(Nc2c(C#N)cnc3cc4[nH]cnc4cc23)c(Br)cc1Cl
